In this experiment the test system is Raw 264.7 cells. Briefly: Inhibition of LDH release from Ox-LDL-oxidised Raw 264.7 cells (WST absorbance). The format is cell-based. To be noted: Ox-LDL 100 μg/mL, compared to the positive control group (LDH release rate 30%). The procedure:
To confirm the anti-oxidative effect of the compounds according to the present invention, the amount of lactate dehydrogenase (LDH), which is a material released from cells killed or damaged by oxidation, was measured by measuring the absorbance using water soluble tetrazolium salt (WST) to measure cytotoxicity. Specifically, Raw 264.7 cells, in which oxidation was induced with 100 μg/mL of oxidized low-density lipoprotein (Ox-LDL), were treated with test materials (2 kinds of comparative groups and 2 kinds of experimental groups) at 1 μM and 10 μM concentrations, respectively, and their ability to inhibit LDH release (i.e., a standard indicator of anti-oxidative effects) was confirmed. As reference, the LDH release rate in the negative control group in which no treatment was made was 7% and the LDH release rate in the positive control group treated with only Ox-LDL was 30%.

The results in this text go back to US10730829B2, “Compound exhibiting anti-oxidative or anti-inflammatory activity” (University-Industry Cooperation Group of Kyung Hee …, priority 2016, dated 2020).

With `CC(=O)NC(CSCCCSCC(NC(C)=O)C(=O)O)C(=O)O` (centres unmarked) [Newcompound-2, 2,14-dioxo-6,10-dithia-3,13-diazapentadecan-4,12-dicarboxylic acid], the “decrease of LDH release rate” value came to 11% (1 μM) and 20% (10 μM).

Take `C=CCSC[C@H](N)C(=O)O` [SAC, S-allyl-L-cysteine]: the “decrease of LDH release rate” value by setting is: (1 μM) 7%; (10 μM) 16%.

Regarding `CC(=O)N[C@@H](CS)C(=O)O` [NAC, N-acetyl-L-cysteine], the “decrease of LDH release rate” value is, setting by setting: (1 μM) 6%; (10 μM) 13%.

With `CC(=O)NC(CSCCCSCC(N)C(=O)O)C(=O)O` (centres unmarked) [Newcompound-1, 2-acetamido-3-(3-(2-amino-2-carboxyethylthio)propylthio)propanoic acid], the “decrease of LDH release rate” value runs as follows: (1 μM) 12%; (10 μM) 21%.
